Test results taken from patent US20060069132A1, “Azolecarboxamide herbicides” (priority 2004, published 2006).

Key:
[1] = test system: morningglory; assay: Test C pre-/postemergence herbicide test; format: in vivo, Ipomoea coccinea; set-up: key to Plant response rating, Morningglory: 0 = no effect, 100 = complete control; settings: for Morningglory plant response rating: 500 g ai/ha
Summary of the method: (§1)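 Emerged plants at the 1- to 4-leaf stage (2–18 cm), or freshly planted seeds, received test chemicals in a non-phytotoxic solvent mixture with surfactant. Response was visually scored against controls after 12 to 14 days in the greenhouse, on a 0 (no effect) to 100 (complete control) scale.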

[2] = test system: common ragweed; assay: Test C pre-/postemergence herbicide test; format: in vivo, Ambrosia elatior; set-up: key to Plant response rating, Ragweed: 0 = no effect, 100 = complete control; settings: for Ragweed plant response rating: 500 g ai/ha
Summary of the method: as §1

[3] = test system: pigweed; assay: Test C pre-/postemergence herbicide test; format: in vivo, Amaranthus retroflexus; settings: for Pigweed plant response rating: 500 g ai/ha
Summary of the method: as §1

[4] = test system: kochia; assay: Test C pre-/postemergence herbicide test; format: in vivo, Kochia scoparia; settings: for Kochia plant response rating: 500 g ai/ha
Summary of the method: as §1

[5] = test system: bermudagrass; assay: Test C pre-/postemergence herbicide test; format: in vivo, Cynodon dactylon
Summary of the method: as §1

[6] = test system: soybean; assay: Test C pre-/postemergence herbicide test; format: in vivo, Glycine max; settings: for Soybean plant response rating: 500 g ai/ha
Summary of the method: as §1

[7] = test system: giant foxtail; assay: Test A pre-/postemergence herbicide test; format: in vivo, Setaria faberi; settings: for Plant response rating, Foxtail, Giant: Postemergence; for Foxtail, Giant plant response rating: Preemergence
Summary of the method: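 Both application timings were run together: directed soil spray over freshly planted seeds in sandy loam, and runoff spray onto 2–10 cm seedlings. Evaluation after ~10 days in greenhouse used a 0–100 visual scale versus untreated controls.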

[8] = test system: large crabgrass; assay: Test C pre-/postemergence herbicide test; format: in vivo, Digitaria sanguinalis; settings: for Crabgrass, Large plant response rating: 500 g ai/ha
Summary of the method: as §1

[9] = test system: yellow nutsedge; assay: Test C pre-/postemergence herbicide test; format: in vivo, Cyperus esculentus; settings: for Nutsedge, Yellow plant response rating: 500 g ai/ha
Summary of the method: as §1

[10] = test system: giant foxtail; assay: Test C pre-/postemergence herbicide test; format: in vivo, Setaria faberi; settings: for Foxtail, Giant plant response rating: 500 g ai/ha
Summary of the method: as §1

[11] = 250 g ai/ha, scale 0 to 100 (0 no effect, 100 complete control), visual, 12 to 14 days, preemergence
[12] = Postemergence, 250 g ai/ha, scale 0 to 100, 0 no effect, 100 complete control
[13] = Preemergence, scale 0 to 100, 0 no effect, 100 complete control
[14] = postemergence, 125 g ai/ha, scale 0 to 100
[15] = postemergence, 62 g ai/ha, scale 0 to 100
[16] = 125 g ai/ha, scale 0-100, preemergence
[17] = Postemergence, 125 g ai/ha, scale 0 to 100, 0 no effect, 100 complete control
[18] = 2000 g ai/ha, 0 to 100 scale, 0 no effect, 100 complete control

C=Cn1nc(C(C)(C)C)cc1C(=O)Nc1cccc(C(=O)N(CC)CC)c1 [Compound 34]
60: Crabgrass, Large plant response rating ([8]; Postemergence, scale 0 to 100) | Plant response rating, Crabgrass, Large [8, 12]
50: Plant response rating, Bermudagrass [5, 16] | Bermudagrass plant response rating ([5]; Postemergence, 500 g ai/ha, scale 0 to 100) | Bermudagrass plant response rating ([5]; Postemergence, 250 g ai/ha, scale 0 to 100)
10: Plant response rating, Morningglory [1, 12] | Plant response rating, Morningglory [1, 14] | Plant response rating, Morningglory [1, 15] | Plant response rating, Bermudagrass [5, 15] | Plant response rating (0 = no effect, 100 = complete control), Foxtail, Giant ([10]; 62 g ai/ha, preemergence)
80: Plant response rating, Kochia [4, 15] | Soybean plant response rating ([6]; Postemergence, scale 0 to 100) | Plant response rating, Soybean [6, 12] | Plant response rating, Soybean [6, 14] | Plant response rating (0 = no effect, 100 = complete control), Crabgrass, Large ([8]; 62 g ai/ha, preemergence)
0: Plant response rating (0 = no effect, 100 = complete control), Morningglory ([1]; 62 g ai/ha, preemergence) | Plant response rating, Morningglory [1, 11] | Plant response rating (0 = no effect, 100 = complete control), Ragweed ([2]; 62 g ai/ha, preemergence) | Plant response rating, Ragweed [2, 11] | Plant response rating (0 = no effect, 100 = complete control), Soybean ([6]; 62 g ai/ha, preemergence) | Plant response rating, Soybean [6, 11] | Soybean plant response rating [6, 13] | Plant response rating (0 = no effect, 100 = complete control), Nutsedge, Yellow ([9]; 62 g ai/ha, preemergence) | Plant response rating, Nutsedge, Yellow [9, 11] | Plant response rating, Nutsedge, Yellow [9, 12] | Nutsedge, Yellow plant response rating [9, 13] | Plant response rating, Nutsedge, Yellow [9, 14] | Plant response rating, Nutsedge, Yellow [9, 15]
20: Plant response rating, Ragweed [2, 15] | Plant response rating (0 = no effect, 100 = complete control), Bermudagrass ([5]; 62 g ai/ha, preemergence) | Plant response rating, Crabgrass, Large [8, 15] | Nutsedge, Yellow plant response rating ([9]; Postemergence, scale 0 to 100) | Plant response rating, Foxtail, Giant [10, 15]
85: Foxtail, Giant plant response rating [7, 18]
90: Plant response rating (0 = no effect, 100 = complete control), Kochia ([4]; 62 g ai/ha, preemergence) | Plant response rating, Kochia [4, 16] | Kochia plant response rating ([4]; Postemergence, scale 0 to 100) | Plant response rating, Kochia [4, 17] | Plant response rating, Kochia [4, 12] | Plant response rating, Bermudagrass [5, 11] | Plant response rating, Foxtail, Giant [10, 11]
30: Plant response rating, Ragweed [2, 14] | Plant response rating, Foxtail, Giant ([7]; 500 g ai/ha, 0 to 100 scale, 0 no effect, 100 complete control)
70: Plant response rating, Soybean [6, 15] | Plant response rating, Foxtail, Giant [10, 16]
100: Morningglory plant response rating [1, 13] | Plant response rating (0 = no effect, 100 = complete control), Pigweed ([3]; 62 g ai/ha, preemergence) | Plant response rating, Pigweed [3, 11] | Pigweed plant response rating ([3]; Postemergence, scale 0 to 100) | Plant response rating, Pigweed [3, 12] | Pigweed plant response rating [3, 13] | Plant response rating, Pigweed [3, 14] | Plant response rating, Pigweed [3, 15] | Kochia plant response rating [4, 13] | Bermudagrass plant response rating ([5]; Preemergence, 500 g ai/ha, scale 0 to 100, 0 no effect, 100 complete control) | Plant response rating, Crabgrass, Large [8, 16] | Plant response rating, Crabgrass, Large [8, 11] | Crabgrass, Large plant response rating [8, 13] | Foxtail, Giant plant response rating [10, 13]
40: Morningglory plant response rating ([1]; Postemergence, scale 0 to 100) | Ragweed plant response rating ([2]; Postemergence, scale 0 to 100) | Plant response rating, Ragweed [2, 12] | Ragweed plant response rating [2, 13] | Plant response rating, Bermudagrass [5, 17] | Plant response rating, Foxtail, Giant [7, 18] | Foxtail, Giant plant response rating ([7]; 500 g ai/ha, visual rating, 0 to 100 scale (0 no effect, 100 complete control)) | Plant response rating, Crabgrass, Large [8, 17] | Foxtail, Giant plant response rating ([10]; Postemergence, scale 0 to 100) | Plant response rating, Foxtail, Giant [10, 17] | Plant response rating, Foxtail, Giant [10, 12]
